Patent US5663207A, “Gem-dichlorocyclopropanes as antitumor agents” (priority 1995, dated 1997)
Entries after “also recorded” stand apart in the source; their conditions may differ. Read-outs that look alike come from different tables or passages of the source.

Key:
[1] = tested on: MCF-7 human breast cancer cells; assay: In vitro MCF-7 human breast cancer cell growth inhibition assay; format: cell-based; conditions: for inhibition at 1 µM: Homo sapiens
Source text: The biological evaluation of the test compounds consisted of the in vitro rat cytosolic estradiol receptor binding assay, the in vivo immature mouse uterotrophic (estrogenic) and antiuterotrophic (antiestrogenic) assays, and the in vitro suppression of the proliferation of the ER positive MCF-7 human breast cancer cell line. Estradiol (pure agonist), TAM (agonist in mice and antagonist in MCF-7), MER 25 (pure antagonist) and Analog II (antagonist in mice) were used in the assay as standards.
MCF-7 (estrogen-receptor positive) human breast cancer cells (obtained from the Michigan Cancer Foundation, Detroit, Mich.) were grown at 37° C. in 75 cm^2 tissue culture (T-75) flasks, as monolayer cultures in RPMI 1640 phenol red-free media supplemented with 2 mM L-glutamine, gentamicin (50 μg/mL), penicillin (100 units/mL), streptomycin (100 μg/mL ) and calf serum (5%). Cultures were grown in an incubator 37° C. in a humid 5% CO2 atmosphere, and fed on alternate days. Expotential growth was maintained by subculturing at eight day intervals when the cells per T-75 flask reached 10 to 12×10^6 cells. Cells were trypsinized, washed and plated in multiwell plates at a density of 5×10^4 cells/well in 3 mL of RPMI 1640 media. The cells were allowed to attach and were in logarithmic growth when the test compounds were added. The test compounds (10^-6 M) in the presence or absence of a 10-fold lower dose of estradiol were dissolved in a polyethylene glycol 400: ethanol (55:45) mixture and added in the culture media in duplicate. Control samples received vehicle alone at the same concentration used in the treatment groups. The final concentration of the vehicle mixture was 0.1% of the incubation media. Cell growth was measured on alternate days using the hemocytometric trypan blue exclusion method. Percent inhibition of MCF-7 cells was calculated as the ratio of the control mean cell count per well minus the treatment group mean cell count per well to the control mean cell count per well, multiplied by 100.
^b % MCF7 inhibition was calculated as follows: […]
Thirteen compounds, Analog II, TAM, and MER 25 were tested for their antiproliferative activity in the MCF-7 human breast cancer cell line (Table II). Compounds were tested at a concentration of 10^-6 M in the presence or absence of 10^-7 M estradiol to assess their ability to alter the growth of the calls (Table II). The 10^-6 M concentration was selected since it was reported that the inhibition of the MCF-7 cells by antiestrogens and TAM occurred either at that concentration or less, and were both selective and estrogen receptor specific. Concentrations of antiestrogens greater than 5×10^-6 M were reported to have nonspecific cytotoxic effects (BRIAND, P. AND […], A. E. (1984), "Effect of estrogen and antiestrogen on the human breast cancer cell line MCF-7 adapted to growth at low serum concentration", Cancer Research, 44, 1114).

[2] = Stability observed during isolation and storage; format: physicochemical; conditions: on concentration, drying or storage
Protocol: The structures of all compounds were supported by their proton NMR spectra, which were measured on either a Varian EM-360A or XL-300 spectrometer. The spectra are reported in parts per million in CDCl3 unless otherwise noted, with tetramethysilane as the internal standard. Infrared spectra were obtained from KBr pellets on a Beckman Acculab 1 spectrometer and were consistent with the assigned structures. Silica gel (for example, obtained commercially from J. T. Baker) of approximately 40 μm diameter was used for flash chromatography (STILL, W. C., KAHN, M. AND MITRA, A. (1978), "Rapid chromatographic technique for preparative separations with moderate resolutions", Journal of Organic Chemistry, 43, 2923), which was performed at 5-10 psi. Petroleum ether was of bp 30°-60° C. When necessary, solvents or reagents were dried by appropriate methods. Evaporations were carried out in vacuo on a rotary evaporator or under a stream of dry N2. Melting points were taken on a Thomas-Hoover capillary melting point apparatus and are uncorrected. Reaction progress and product purity were monitored by analytical TLC on strips of Eastman Kodak plastic-backed SiO2 60 F254 or Al2 O3 F254. Developed strips were viewed under light of 254 and 365 nm wavelengths. Elemental analyses were done by Midwest Microlab Ltd., Indianapolis, IN. Acceptable elemental results are denoted in Table I by the formula, followed by the elements analyzed. Melting points and yields of all compounds were based on pure samples unless otherwise noted, are listed in Table I. Para-Bromoanisole, p-methoxydeoxybenzoin, anisole, p-methoxybenzaldehyde, and 2,3-bis-(p-methoxyphenyl)-acrylic acid and trans-p-methoxystilbene (the olefin), were purchased from Aldrich & Co. The cyclopropanes 1,1-dichloro-cis-2-(p-hydroxyphenyl)-3-phenylcyclopropane (9), and its trans isomer 1,1-dichloro-trans-2-(p-Hydroxyphenyl)-3phenylcyclopropane (17) were prepared from Compounds 8 & 16, respectively. […] Tamoxifen was obtained from Stuart Pharmaceuticals, Division of ICI Americas, Inc., Wilmington, Del. 19897. MER 25 was obtained from the Merrell Dow Research Institute, Division of Merrell Dow Pharmaceuticals, Inc., Cincinnati, Ohio. Protein Assay Reagent, Pierce Chemical Co., Rockford, Ill. 61105. Diethylstilbestrol, β-estradiol, EDTA, DL-dithiothreitol, Sodium molybdate, and Tris (hydroxymethyl) aminomethane hydrochloride were purchased from Sigma Chemical Co., St. Louis, Mo. 63178.
Essentially, the intermediate olefin acids (Compounds 6 & 12) were obtained from a mixed Perkin and Knoevenagel-type condensation involving the reaction of p-methoxyaldehyde (Compound 4) with phenylacetic acid (Compound 5), or p-methoxyphenylacetic acid (Compound 11) in triethylamine and acetic anhydride. To prepare cis-p-methoxystilbene (Compound 7) or bis-(p-methoxy)-cis-stilbene (Compound 13). Decarboxylation of 6 & 12 with quinoline (prevents isomerizations; KLEIN, J. AND MEYER, A. Y. (1964), "The decarboxylation of α-cyano-and α-carboxycinnamic acids", Journal of Organic Chemistry, 29, 1038), and copper chromite at elevated temperature provided 7 & 13. High temperature during distillation caused 8% isomerization to the trans-isomer (15), which was isolated by column chromatography. Dichlorocarbene generation used the catalytic phase transfer method (21, 37) (used extensively in our laboratory) of 50% aqueous solution of NaOH, CHCl3 and benzyltriethylammonium chloride (TEBA) as the anion transfer agent. […]

Structure (SMILES)	effect on MCF-7 cell growth (in words) ([1]; 10^-6 M)	inhibition at 1 µM ([1]; MCF7, 10^-6 M, versus control mean cell count, read-out: MCF-7 Inhibition) [%]	stability (in words) [2]	reversal of growth inhibition by estradiol (in words) ([1]; 10^-7 M estradiol)	inhibition at 1 µM ([1]; MCF7, read-out: MCF-7 Inhibition) [%]	effect on estradiol-induced cell growth (in words) ([1]; with 10^-7 M estradiol)
CC(=O)Oc1ccc([C@H]2[C@@H](c3ccccc3)C2(Cl)Cl)cc1 (relative stereo) [Compound 10, 1,1-Dichloro-cis-2-(p-acetoxyphenyl)-3-phenylcyclopropane]	inhibited cell growth	32	stable light-yellow oil at 0 °C			
Oc1ccc(C2(c3ccc(O)cc3)C(Cl)(Cl)C23CCCCC3)cc1 [Compound 30, 1,1-Dichloro-2,2-bis-(p-hydroxyphenyl)-spiro[2.5]octane]	active inhibitors of cell growth		gradually turned to light-orange; also recorded: underwent a gradual color change	reversed by 10^-7 M estradiol	21.3	enhanced estradiol-induced cell growth above the control
